Assay results reported in paper PMC5810560 (Chemico-biological interactions, 2017).
“And” between values parts separate entries of the source, which are not always exact repeats. Equal entries are not always repeated.

Columns and labels:
p-gp (MDR1) = p-gp (MDR1) (Homo sapiens, UniProt P08183); experiment: MDR1 efflux assessment in MDR1-MDCK and MDCK parent cells; settings: MDR1-MDCK vs MDCK cells, 100 μM; NFR > 1 = possible p-gp substrate
[1] = mice dosed with 80 mg/kg; ref Radic et al., 2012; cited from earlier work
[2] = test system: Human cerebral microvascular cells (HCMEC/D3); experiment: Brain endothelial cell traversal; settings: 100 μM in HBSS, apical to basolateral
[3] = Renal clearance: urine radioactivity and HPLC of urine; settings: for percent of the administered dose in urine: guinea pig
[4] = Parallel artificial membrane permeability assay; settings: 100 μM in HBSS
[5] = RS194B biodistribution / brain penetration in perfused tissues; settings: guinea pig; for Tissue level at Cmax, percent of administered dose, Brain / Tissue level at Cmax, percent of administered dose, Heart / Tissue level at Cmax, percent of administered dose, Kidney / Tissue level at Cmax, percent of administered dose, Liver / Tissue level at Cmax, percent of administered dose, Lung / Tissue level at Cmax, percent of administered dose, Spleen: total tissue weight

Chain of p-gp (MDR1) (P08183 whole entry, looked up): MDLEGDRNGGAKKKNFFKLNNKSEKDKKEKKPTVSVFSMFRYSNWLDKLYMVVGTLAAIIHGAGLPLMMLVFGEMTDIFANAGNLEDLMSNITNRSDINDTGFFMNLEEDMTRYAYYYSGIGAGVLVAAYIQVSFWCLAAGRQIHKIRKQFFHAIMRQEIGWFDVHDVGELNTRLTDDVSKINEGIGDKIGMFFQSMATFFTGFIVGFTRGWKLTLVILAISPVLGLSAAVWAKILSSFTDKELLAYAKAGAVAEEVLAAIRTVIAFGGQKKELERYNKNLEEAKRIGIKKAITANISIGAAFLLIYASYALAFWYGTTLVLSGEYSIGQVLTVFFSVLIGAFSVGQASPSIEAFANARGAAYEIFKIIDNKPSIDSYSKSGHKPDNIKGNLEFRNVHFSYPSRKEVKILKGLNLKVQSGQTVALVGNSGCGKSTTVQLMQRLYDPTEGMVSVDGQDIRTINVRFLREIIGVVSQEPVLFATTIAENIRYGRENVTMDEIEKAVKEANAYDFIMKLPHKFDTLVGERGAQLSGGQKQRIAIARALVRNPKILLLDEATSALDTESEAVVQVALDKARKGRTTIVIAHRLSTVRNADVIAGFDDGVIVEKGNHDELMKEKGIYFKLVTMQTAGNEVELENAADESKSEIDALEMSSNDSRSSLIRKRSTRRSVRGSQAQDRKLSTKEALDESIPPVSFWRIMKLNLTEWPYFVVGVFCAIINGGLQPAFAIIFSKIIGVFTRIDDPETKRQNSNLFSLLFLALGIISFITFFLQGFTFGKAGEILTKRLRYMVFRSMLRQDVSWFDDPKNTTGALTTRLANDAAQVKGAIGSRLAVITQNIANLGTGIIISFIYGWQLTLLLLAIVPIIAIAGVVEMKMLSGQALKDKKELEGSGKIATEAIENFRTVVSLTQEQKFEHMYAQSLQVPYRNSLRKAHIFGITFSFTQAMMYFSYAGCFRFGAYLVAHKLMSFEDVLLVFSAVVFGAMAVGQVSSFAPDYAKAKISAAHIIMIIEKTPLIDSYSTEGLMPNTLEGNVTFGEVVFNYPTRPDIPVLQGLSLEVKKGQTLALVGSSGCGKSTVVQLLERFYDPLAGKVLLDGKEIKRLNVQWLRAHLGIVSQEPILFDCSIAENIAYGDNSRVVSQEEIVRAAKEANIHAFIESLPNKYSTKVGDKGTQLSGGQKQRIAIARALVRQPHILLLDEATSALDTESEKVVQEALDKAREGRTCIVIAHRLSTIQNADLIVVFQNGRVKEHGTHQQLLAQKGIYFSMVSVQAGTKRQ

Q: Which results are given for O=C(C=NO)NCCN1CCCCCC1 [RS194B]?
A: net flux ratio (NFR) (p-gp (MDR1)): ≤ 1; brain/plasma ratio [1]: 0.3; permeability across HCMEC/D3 monolayer relative to controls [2]: permeability was improved over that of 2-PAM, but was lower than that of a known permeable compound; radioactivity recovered in the urine ([3]; first 4 h post dose, three highest dose concentrations): over 60%; metabolic stability (HPLC of 0-4 h urine) ([3]; guinea pig urine, one radioactive peak matching RS194B standard): metabolically stable; percent of the administered dose in urine ([3]; IV 10 mg/kg, first 24 h): 11-28%; percent of the administered dose in urine ([3]; IV 50 mg/kg, first 24 hr post dose): 49-77%; percent of the administered dose in urine ([3]; IV 100 mg/kg, first 24 hr post dose): 46-68%; percent of the administered dose in urine ([3]; IV 200 mg/kg, first 24 hr post dose): 59-79%; effective permeability (Peff), PAMPA ([4]; five hours, 25°C, vs threshold for moderate permeability): < 20 nm/s; PAMPA diffusion relative to controls ([4]; vs 2-PAM and diazepam positive control): increased diffusion relative to the 2-PAM standard of care, rate of permeation was dramatically lower than the diazepam positive control; brain/ plasma ([5]; IM 50 mg/kg, 0.08 hr (brain Cmax)): 0.058 and 0.06 ± 0.002; brain/ plasma ([5]; IM 50 mg/kg, 0.25 hr): 0.04 ± 0.006; brain/ plasma ([5]; IM 50 mg/kg, 0.5 hr): 0.03 ± 0.002; brain/ plasma ([5]; IM 50 mg/kg, 1 hr): 0.02 ± 0.010; brain/ plasma ([5]; IM 50 mg/kg, 2 hr): 0.02 ± 0.001; brain/ plasma ([5]; IM 50 mg/kg, 4 hr): 0.06 ± 0.005; brain/ plasma ([5]; IM 50 mg/kg, 8 hr): 0.08 ± 0.007; brain/ plasma ([5]; IM 50 mg/kg, 24 hr): 0.19 ± 0.045; Tissue level at Cmax, percent of administered dose, Brain ([5]; IM 50 mg/kg): 0.02 ± 0.005% of administered dose; Tissue level at Cmax, percent of administered dose, Heart ([5]; IM 50 mg/kg): 0.07 ± 0.02% of administered dose; Tissue level at Cmax, percent of administered dose, Kidney ([5]; IM 50 mg/kg): 2.87 ± 0.48% of administered dose; Tissue level at Cmax, percent of administered dose, Liver ([5]; IM 50 mg/kg): 7.04 ± 0.61% of administered dose; Tissue level at Cmax, percent of administered dose, Lung ([5]; IM 50 mg/kg): 0.67 ± 0.16% of administered dose; Tissue level at Cmax, percent of administered dose, Spleen ([5]; IM 50 mg/kg): 0.03 ± 0.01% of administered dose; brain-to-plasma ratio at later time points over ratio at Tmax ([5]; IM exposure): 3.2 times; brain/ plasma ([5]; IV 10 mg/kg, 0.08 hr (brain Cmax)): 0.04 ± 0.001; brain/ plasma ([5]; IV 10 mg/kg, 0.25 hr): 0.040 ±0.002; brain/ plasma ([5]; IV 10 mg/kg, 0.5 hr): 0.03 ± 0.002; brain/ plasma ([5]; IV 10 mg/kg, 1 hr): 0.02 ± 0.001; brain/ plasma ([5]; IV 10 mg/kg, 2 hr): 0.03 ± 0.003; brain/ plasma ([5]; IV 10 mg/kg, 4 hr): 0.05 ± 0.003; brain/ plasma ([5]; IV 10 mg/kg, 8 hr): 0.09 ± 0.011; brain/ plasma ([5]; IV 10 mg/kg, 24 hr): 0.11 ± 0.035; Tissue level at Cmax, percent of administered dose, Heart ([5]; IV 10 mg/kg): 0.05 ± 0.01% of administered dose; Tissue level at Cmax, percent of administered dose, Kidney ([5]; IV 10 mg/kg): 5.19 ± 0.23% of administered dose; Tissue level at Cmax, percent of administered dose, Liver ([5]; IV 10 mg/kg): 8.76 ± 0.32% of administered dose; Tissue level at Cmax, percent of administered dose, Lung ([5]; IV 10 mg/kg): 0.45 ± 0.04% of administered dose; Tissue level at Cmax, percent of administered dose, Spleen ([5]; IV 10 mg/kg): 0.04 ± 0.01% of administered dose; Tissue level at Cmax, percent of administered dose, Brain ([5]; IV 10 mg/kg, 10 mg/kg): 0.03% of administered dose and 0.03 ± 0.002% of administered dose; brain/ plasma ([5]; IV 50 mg/kg, 0.08 hr (brain Cmax)): 0.09 ± 0.006; brain/ plasma ([5]; IV 50 mg/kg, 0.25 hr): 0.08 ± 0.005; brain/ plasma ([5]; IV 50 mg/kg, 0.5 hr): 0.05 ± 0.003; brain/ plasma ([5]; IV 50 mg/kg, 1 hr): 0.03 ± 0.014; brain/ plasma ([5]; IV 50 mg/kg, 2 hr): 0.03 ± 0.002; brain/ plasma ([5]; IV 50 mg/kg, 4 hr): 0.07 ± 0.004; brain/ plasma ([5]; IV 50 mg/kg, 8 hr): 0.07 ± 0.009; brain/ plasma ([5]; IV 50 mg/kg, 24 hr): 0.18 ± 0.062; Tissue level at Cmax, percent of administered dose, Brain ([5]; IV 50 mg/kg): 0.09 ± 0.01% of administered dose; Tissue level at Cmax, percent of administered dose, Heart ([5]; IV 50 mg/kg): 0.06 ± 0.01% of administered dose; Tissue level at Cmax, percent of administered dose, Kidney ([5]; IV 50 mg/kg): 5.16 ± 0.52% of administered dose; Tissue level at Cmax, percent of administered dose, Liver ([5]; IV 50 mg/kg): 8.60 ± 0.48% of administered dose; Tissue level at Cmax, percent of administered dose, Lung ([5]; IV 50 mg/kg): 0.95 ± 0.12% of administered dose; Tissue level at Cmax, percent of administered dose, Spleen ([5]; IV 50 mg/kg): 0.08 ± 0.01% of administered dose; brain/ plasma ([5]; IV 100 mg/kg, 0.08 hr (brain Cmax)): 0.12 ± 0.006; brain/ plasma ([5]; IV 100 mg/kg, 0.25 hr): 0.10 ± 0.008; brain/ plasma ([5]; IV 100 mg/kg, 0.5 hr): 0.12 ± 0.007; brain/ plasma ([5]; IV 100 mg/kg, 1 hr): 0.05 ± 0.001; brain/ plasma ([5]; IV 100 mg/kg, 2 hr): 0.05 ± 0.005; brain/ plasma ([5]; IV 100 mg/kg, 4 hr): 0.08 ± 0.005; brain/ plasma ([5]; IV 100 mg/kg, 8 hr): 0.08 ± 0.010; brain/ plasma ([5]; IV 100 mg/kg, 24 hr): 0.06 ± 0.008; Tissue level at Cmax, percent of administered dose, Brain ([5]; IV 100 mg/kg): 0.11 ± 0.01% of administered dose
